According to patent publication US20220142209A1, “METHODS AND COMPOSITIONS FOR IMPROVING THE TASTE OF DIET COLA SODAS AND OTHER BEVERAGES” (priority 2019, published 2022):

Experiments:
[1] = Informal taste test of additives mixed into DIET COKE; type: in vivo, people
Source text: To provide enabling context for some of the embodiments disclosed herein, simple formulations are described here (with more enablement in the Exemplary Embodiments below). Pour into a cup about 7.5 ounces of a DIET COKE® that includes just aspartame. Mix in about one to two teaspoons of ENACO ERC-A20 decocainized liquid coca leaf extract, both liquids at room temperature. […] Adding a bag of sugar (5 grams) results in an even more pleasant taste while providing a cola soda with 80% less sugar. Using glucose instead of sugar (sucrose) produce a fructose-free, low-sugar, cola soda.
(§1) Taste and aroma are not separate sensory experiences. For example, when many people are afflicted with the common cold, and have stuffy noses, they can lose some or all of the taste of foods. This is attributed to the odor sensors in the nose being blocked. Also, when many people eat foods, they can have a time dependent sensory experience, as the (chewed) food travels to the back of the mouth and then some of the aromas enter the back of the nasal cavity, due to retronasal smell (versus orthonasal smell due to aromas entering the front of the nasal cavity, for example, when you sniff a rose). Thus, in many of the embodiments disclosed herein, the term “taste and/or aroma” is used. Also, the Exemplary Embodiments that follows, statements in changes in taste and/or aroma are based on the opinions of a few people. Not all people drinking the embodiments disclosed herein will experience the same degree of improvement in taste and/or aroma.
For the exemplary embodiments that follow, the examples are performed with all liquids at room temperature. Sodas typically taste more pleasant at lower temperatures (sodas retain carbonation better at lower temperatures, which creates a better taste for many people). Any improvements in taste and/or aroma resulting from any of the following embodiments at room temperature are similar, if not more pleasant, at lower temperatures down to freezing. Tastes and/or aromas can also vary due to the use of soda container: glass, plastic, metal or paper. There are many who think that cola sodas taste best when consumed from glass bottles. For many of the exemplary embodiments disclosed herein, Bodum PAVINA® Coffee Mugs, double-wall insulated glass mugs, 8-ounce size, are used.
One embodiment of an improved cola beverage product is understood with the following exemplary method and resulting exemplary article of manufacture. Pour about 7.5 ounces of DIET COKE® (about 220 grams—about 222 milliliters) into a container such as a cup. Mix in about one half teaspoon to two teaspoons (about 2.5 to 10 grams—about 2.5 to 10 milliliters) of coca leaf extract, for example, the ERC-A20 liquid coca extract available from ENACO (Lima, Peru) or its equivalents. […] Any coca leaf extract with similar chemical components (see FIG. 4 and FIG. 11, for example) to ERC-A20 (the version of the extract circa 2018/2019) can be used, and the extracts can be added to other diet sodas such as COKE ZERO® and COKE ZERO SUGAR®.

[2] = Taste test of ethyl benzoate in hot unsweetened cacao drink; type: in vivo, people; conditions: 5 ml of 24 micrograms per milliliter solution in one cup hot water with about two tablespoons unsweetened cacao powder
Source text: as §1
Some of the unpleasant taste of unsweetened cacao can be removed by using ethyl benzoate. In one exemplary embodiment to improve the taste of any brand of unsweetened cacao and/or chocolate made therefrom, prepare one cup of hot water and add about two tablespoons of unsweetened HERSHEY® cacao powder. Mix in 5 milliliters (one teaspoon) of a liquid (e.g., water) solution that has, for example, 24 micrograms per milliliters of ethyl benzoate. […]

[3] = adults and children; cited from earlier work

## CC1=CCC(C(C)(C)O)CC1 (stereo not drawn) [alpha-terpineol]
[1]; about one teaspoon of 48 micrograms/milliliter water solution in 220 ml DIET COKE
  experience of drinking modified DIET COKE: more pleasant

## O=C([O-])c1ccccc1.[Na+] [sodium benzoate]
[1]; 1/32nd teaspoon (230 milligrams) in 220 ml DIET COKE
  Coca-Cola taste: No improvement

## CCOC(=O)c1ccccc1 [ethyl benzoate]
[1]; about 5 ml (one teaspoon) of about 24 micrograms per milliliter solution in 7.5 ounces DIET COKE
  taste and/or aroma versus untreated DIET COKE: more pleasant
[1]; solution of just ethyl benzoate instead of liquid coca leaf extract, about 7.5 ounces DIET COKE
  taste of resulting beverage: improvement in taste, but lesser of an improvement than with the leaf extract
[2]
  pleasantness of resulting beverage: more pleasant

## C=CC(C)(O)CCC=C(C)C (stereo not shown) [linalool]
[1]; one teaspoon, 40 micrograms per milliliter, in 220 ml Diet Coke
  change in unpleasantness: little-to-no change

## OC[C@@H](O)[C@H](O)[C@@H](O)CO [xylitol]
[3]
  safe amounts: less than 20 grams a day
[1]; one teaspoon powdered xylitol dissolved in 1.5 teaspoons ERC-A20, added to 220 ml DIET COKE
  taste of resulting beverage: An improvement in taste is experienced

## COC(=O)c1ccccc1 [methyl benzoate]
[1]; about 5 ml of solution of about 24 micrograms per milliliter
  DIET COKE taste: taste similar to that of using ethyl benzoate

## CC1=CCC(C(C)C)=CC1 [gamma-terpinene]
[1]; one half teaspoon, 40 micrograms/milliliter, in 220 ml DIET COKE
  taste of resulting DIET COKE: while more pleasant as seen with adding alpha-terpineol, also has less of a “coca cola” taste
